Columns and labels:
Assay type in all cases: cell-based
human TLR7 = target: T1, human TLR7 (Homo sapiens, UniProt Q9NYK1); assay: TLR7 inhibition reporter assay (HEK-Blue SEAP reporter); details: HEK-Blue cells overexpressing human TLR7; gardiquimod 7.5 μM; 22 hour incubation
T1 construct: host or cells: HEK-Blue cells
T1 sequence (Q9NYK1 27-1049): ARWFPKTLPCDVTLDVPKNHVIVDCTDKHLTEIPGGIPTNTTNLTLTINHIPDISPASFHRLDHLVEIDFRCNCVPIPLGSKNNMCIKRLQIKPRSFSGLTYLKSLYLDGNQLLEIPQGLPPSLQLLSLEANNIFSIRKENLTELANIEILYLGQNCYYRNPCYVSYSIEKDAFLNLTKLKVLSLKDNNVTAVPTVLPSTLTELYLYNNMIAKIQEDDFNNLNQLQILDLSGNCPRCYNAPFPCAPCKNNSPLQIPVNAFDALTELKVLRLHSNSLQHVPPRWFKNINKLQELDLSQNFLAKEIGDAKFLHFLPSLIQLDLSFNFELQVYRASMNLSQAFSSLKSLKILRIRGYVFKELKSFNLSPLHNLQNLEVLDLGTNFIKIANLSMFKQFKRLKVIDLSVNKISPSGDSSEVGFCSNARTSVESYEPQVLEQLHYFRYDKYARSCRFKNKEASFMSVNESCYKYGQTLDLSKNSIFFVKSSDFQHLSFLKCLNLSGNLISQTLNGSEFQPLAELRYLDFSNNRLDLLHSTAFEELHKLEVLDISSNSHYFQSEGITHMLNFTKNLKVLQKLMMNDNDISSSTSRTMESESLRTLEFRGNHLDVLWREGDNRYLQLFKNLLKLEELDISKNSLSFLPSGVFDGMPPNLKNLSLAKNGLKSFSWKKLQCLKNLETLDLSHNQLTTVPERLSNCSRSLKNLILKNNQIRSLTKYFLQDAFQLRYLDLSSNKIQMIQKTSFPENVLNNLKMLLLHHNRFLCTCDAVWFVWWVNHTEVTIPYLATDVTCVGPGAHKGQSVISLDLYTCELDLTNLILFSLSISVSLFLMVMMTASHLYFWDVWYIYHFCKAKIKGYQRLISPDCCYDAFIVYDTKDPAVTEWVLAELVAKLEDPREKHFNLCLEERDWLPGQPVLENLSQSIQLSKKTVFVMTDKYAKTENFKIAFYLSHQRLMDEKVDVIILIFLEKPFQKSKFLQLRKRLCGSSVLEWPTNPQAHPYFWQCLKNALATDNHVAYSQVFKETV
Summary of the method: (§1)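 Dose–response from 0.05 nM to 50 μM was run in HEK-Blue human TLR7, TLR8 and TLR9 reporter cells. After 30 min at room temperature with compound, ligand was added (TLR7 gardiquimod 7.5 μM; TLR8 R848 15.9 μM; TLR9 ODN2006 5 nM) and SEAP measured next day, at 22 h.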

human TLR8 = target: T2, human TLR8 (Homo sapiens, UniProt Q9NR97); assay: TLR8 inhibition reporter assay (HEK-Blue SEAP reporter); details: HEK-Blue cells overexpressing human TLR8; R848 15.9 μM; 22 hour incubation
T2 construct: host or cells: HEK-Blue cells
T2 sequence (Q9NR97 27-1041): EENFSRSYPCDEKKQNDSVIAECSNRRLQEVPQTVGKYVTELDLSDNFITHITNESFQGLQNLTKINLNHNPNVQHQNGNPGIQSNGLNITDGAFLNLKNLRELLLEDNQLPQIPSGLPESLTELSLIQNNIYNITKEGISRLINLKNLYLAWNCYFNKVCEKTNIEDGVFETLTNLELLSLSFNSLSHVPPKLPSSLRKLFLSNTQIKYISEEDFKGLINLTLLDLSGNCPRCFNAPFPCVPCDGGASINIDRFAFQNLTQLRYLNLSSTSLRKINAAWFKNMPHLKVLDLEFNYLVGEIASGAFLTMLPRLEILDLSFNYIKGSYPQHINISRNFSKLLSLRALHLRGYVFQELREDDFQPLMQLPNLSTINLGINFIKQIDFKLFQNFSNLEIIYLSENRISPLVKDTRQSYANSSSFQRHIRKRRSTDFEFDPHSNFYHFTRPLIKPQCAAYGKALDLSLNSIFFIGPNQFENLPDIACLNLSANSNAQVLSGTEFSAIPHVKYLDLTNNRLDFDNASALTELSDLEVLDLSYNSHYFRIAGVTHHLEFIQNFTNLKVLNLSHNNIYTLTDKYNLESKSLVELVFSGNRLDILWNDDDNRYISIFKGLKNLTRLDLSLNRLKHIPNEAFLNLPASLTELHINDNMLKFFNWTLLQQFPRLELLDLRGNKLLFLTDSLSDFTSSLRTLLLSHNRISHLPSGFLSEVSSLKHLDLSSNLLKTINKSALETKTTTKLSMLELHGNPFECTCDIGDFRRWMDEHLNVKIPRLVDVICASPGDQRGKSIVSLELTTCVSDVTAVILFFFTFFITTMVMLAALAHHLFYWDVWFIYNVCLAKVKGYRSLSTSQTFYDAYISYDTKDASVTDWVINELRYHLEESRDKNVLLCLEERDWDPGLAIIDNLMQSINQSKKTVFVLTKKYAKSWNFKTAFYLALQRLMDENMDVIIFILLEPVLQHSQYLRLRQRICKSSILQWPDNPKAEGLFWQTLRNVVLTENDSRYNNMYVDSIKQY
Description: TLR7/8/9 Inhibition Reporter Assays
HEK-Blue™-cells (Invivogen) overexpressing human TLR7, TLR8 or TLR9 receptors were used for screening inhibitors of these receptors using an inducible SEAP (secreted embryonic alkaline phosphatase) reporter gene under the control of the IFN-β minimal promoter fused to five NF-κB and AP-1-binding sites. Briefly, cells are seeded into Greiner 384 well plates (15000 cells per well for TLR7, 20,000 for TLR8 and 25,000 for TLR9) and then treated with test compounds in DMSO to yield a final dose response concentration range of 0.05 nM-50 μM. After a 30 minute compound pre-treatment at room temperature, the cells are then stimulated with a TLR7 ligand (gardiquimod at a final concentration of 7.5 μM), TLR8 ligand (R848 at a final concentration of 15.9 μM) or TLR9 ligand (ODN2006 at a final concentration of 5 nM) to activate NF-κB and AP-1 which induce the production of SEAP. After a 22 hour incubation at 37° C., 5% CO2, SEAP levels are determined with the addition of HEK-Blue™ Detection reagent (Invivogen), a cell culture medium that allows for detection of SEAP, according to manufacturer's specifications. The percent inhibition is determined as the % reduction in the HEK-Blue signal present in wells treated with agonist plus DMSO alone compared to wells treated with a known inhibitor.

human TLR9 = target: T3, human TLR9 (Homo sapiens, UniProt Q9NR96); assay: TLR9 inhibition reporter assay (HEK-Blue SEAP reporter); details: HEK-Blue cells overexpressing human TLR9; ODN2006 5 nM; 22 hour incubation
T3 construct: host or cells: HEK-Blue cells
T3 sequence (Q9NR96 26-1032): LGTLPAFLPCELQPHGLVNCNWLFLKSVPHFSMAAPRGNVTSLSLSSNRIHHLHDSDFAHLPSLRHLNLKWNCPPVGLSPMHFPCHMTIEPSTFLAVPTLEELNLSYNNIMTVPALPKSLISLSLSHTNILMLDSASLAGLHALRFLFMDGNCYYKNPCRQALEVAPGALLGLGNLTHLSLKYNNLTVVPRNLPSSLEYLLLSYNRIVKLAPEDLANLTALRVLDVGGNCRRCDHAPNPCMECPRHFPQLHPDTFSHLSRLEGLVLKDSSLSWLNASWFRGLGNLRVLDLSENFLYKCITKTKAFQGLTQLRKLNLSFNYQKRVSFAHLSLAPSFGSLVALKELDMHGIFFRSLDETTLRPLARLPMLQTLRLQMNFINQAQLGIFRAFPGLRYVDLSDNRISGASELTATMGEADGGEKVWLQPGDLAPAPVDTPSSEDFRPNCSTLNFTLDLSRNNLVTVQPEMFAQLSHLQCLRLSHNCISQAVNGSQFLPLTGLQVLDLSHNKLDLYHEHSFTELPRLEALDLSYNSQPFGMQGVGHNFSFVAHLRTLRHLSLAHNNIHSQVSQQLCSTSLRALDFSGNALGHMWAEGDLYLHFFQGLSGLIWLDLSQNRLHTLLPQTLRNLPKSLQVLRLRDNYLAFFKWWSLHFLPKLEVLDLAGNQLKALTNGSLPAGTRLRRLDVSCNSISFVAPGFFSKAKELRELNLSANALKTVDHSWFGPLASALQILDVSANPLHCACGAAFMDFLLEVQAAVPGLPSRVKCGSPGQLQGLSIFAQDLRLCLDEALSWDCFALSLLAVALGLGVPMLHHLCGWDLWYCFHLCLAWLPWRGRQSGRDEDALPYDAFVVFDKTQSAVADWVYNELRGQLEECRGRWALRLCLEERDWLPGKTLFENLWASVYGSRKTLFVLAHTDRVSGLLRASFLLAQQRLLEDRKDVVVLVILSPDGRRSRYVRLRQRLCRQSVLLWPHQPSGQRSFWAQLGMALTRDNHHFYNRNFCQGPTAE
Summary of the method: as §1

SMILES	IC50 (human TLR7) [nM]	IC50 (human TLR8) [nM]	IC50 (human TLR9) [nM]
COc1ccc(-c2[nH]c3ccc(N4CCC(OC5CCN(C)CC5)CC4)cc3c2C(C)C)cc1OC [Example 187, 2-(3,4-dimethoxyphenyl)-3-isopropyl-5-(4-((1-methylpiperidin-4-yl)oxy)piperidin-1-yl)-1H-indole]	83	167	1450
COc1ccc(-c2[nH]c3ccc(NC(=O)[C@@H](N)CCCN)cc3c2C(C)C)cc1OC [Example 20, (S)-2,5-diamino-N-(2-(3,4-dimethoxyphenyl)-3-isopropyl-1H-indol-5-yl)pentanamide]	125	106	> 50000
COc1ccc(-c2[nH]c3ccc(N4CCN(C5CC(C)(C)NC(C)(C)C5)CC4)cc3c2C(C)C)cc1OC [Example 68, 2-(3,4-dimethoxyphenyl)-3-isopropyl-5-(4-(2,2,6,6-tetramethyl-112-piperidin-4-yl)piperazin-1-yl)-1H-indole]	34	11	676
COc1ccc(-c2[nH]c3ccc(N4CCC(N)(CC#N)CC4)cc3c2C(C)C)cc1OC [Example 109, 2-(4-amino-1-(2-(3,4-dimethoxyphenyl)-3-isopropyl-1H-indol-5-yl)piperidin-4-yl)acetonitrile]	28	211	15100
COc1ccc(-c2[nH]c3ccc(N4CCC(N5CC(C)OC(C)C5)CC4)cc3c2C(C)C)cc1OC (stereo not drawn) [Example 80, 4-(1-(2-(3,4-dimethoxyphenyl)-3-isopropyl-H-indol-5-yl)piperidin-4-yl)-2,6-dimethylmorpholine]	130	19	5790
COc1ccc(-c2[nH]c3ccc(N4CCC(NC5CC(C)(C)N(C)C(C)(C)C5)CC4)cc3c2C(C)C)cc1OC [Example 95, N-(1-(2-(3,4-dimethoxyphenyl)-3-isopropyl-1H-indol-5-yl)piperidin-4-yl)-1,2,2,6,6-pentamethylpiperidin-4-amine]	39	7.8	533
CCc1c(-c2cc(OC)nc(OC)c2)[nH]c2ccc(N3CCN(C4CCN(C(C)C)CC4)CC3)cc12 [Example 173, 2-(2,6-dimethoxypyridin-4-yl)-3-ethyl-5-(4-(1-isopropylpiperidin-4-yl)piperazin-1-yl)-1H-indole]	59	9.8	673
COc1ccc(-c2[nH]c3ccc(NC4CCC(N5CCN(C6CCN(C)CC6)CC5)CC4)cc3c2C(C)C)cc1OC (stereo not drawn) [Example 62, 2-(3,4-dimethoxyphenyl)-3-isopropyl-N-(4-(4-(1-methylpiperidin-4-yl)piperazin-1-yl)cyclohexyl)-1H-indol-5-amine]	211	212	323
CC(C)c1c(-c2ccnc3[nH]ccc23)[nH]c2ccc(N3CCNCC3)cc12 [Example 128, 4-(3-isopropyl-5-(piperazin-1-yl)-1H-indol-2-yl)-1H-pyrrolo[2,3-b]pyridine]	2.3	0.41	8100
Cc1c(-c2ccnc3[nH]ccc23)[nH]c2ccc(N3CCN(C4CCN(C)CC4)CC3)cc12 [Example 141, 4-(3-methyl-5-(4-(1-methylpiperidin-4-yl)piperazin-1-yl)-1H-indol-2-yl)-1H-pyrrolo[2,3-b]pyridine]	2170	1720	124
COc1ccc(-c2[nH]c3ccc(NC4CCC(N5CCN(c6ccncc6)CC5)CC4)cc3c2C(C)C)cc1OC (stereo not drawn) [Example 59, 2-(3,4-dimethoxyphenyl)-3-isopropyl-N-(4-(4-(pyridin-4-yl)piperazin-1-yl)cyclohexyl)-1H-indol-5-amine]	196	106	218
COc1ccc(-c2[nH]c3ccc(N4CCC(NC5CCN(C)CC5)CC4)cc3c2C(C)C)cc1OC [Example 79, 1-(2-(3,4-dimethoxyphenyl)-3-isopropyl-1H-indol-5-yl)-N-(1-methylpiperidin-4-yl)piperidin-4-amine]	9.8	4.7	640

From patent publication US11306092B2, “Amino indole compounds useful as TLR inhibitors” (BRISTOL-MYERS SQUIBB COMPANY, priority 2017, dated 2022)
